Read-outs that look alike come from different tables or passages of the source.

Results on three molecules are retold here after US20110053947A1, “Arylchalcogenoarylalkyl-substituted imidazolidine-2,4-diones, process for preparation thereof, medicaments comprising these compounds and use thereof” (SANOFI-AVENTIS, priority 2008, published 2011).

For assay [1], the target named is T1, cannabinoid CB1 receptor (CB1) (Mus musculus, UniProt P47746).
T1 construct: from tissue; host or cells: whole animal (female NMRI mice)
T1 sequence (P47746 whole entry): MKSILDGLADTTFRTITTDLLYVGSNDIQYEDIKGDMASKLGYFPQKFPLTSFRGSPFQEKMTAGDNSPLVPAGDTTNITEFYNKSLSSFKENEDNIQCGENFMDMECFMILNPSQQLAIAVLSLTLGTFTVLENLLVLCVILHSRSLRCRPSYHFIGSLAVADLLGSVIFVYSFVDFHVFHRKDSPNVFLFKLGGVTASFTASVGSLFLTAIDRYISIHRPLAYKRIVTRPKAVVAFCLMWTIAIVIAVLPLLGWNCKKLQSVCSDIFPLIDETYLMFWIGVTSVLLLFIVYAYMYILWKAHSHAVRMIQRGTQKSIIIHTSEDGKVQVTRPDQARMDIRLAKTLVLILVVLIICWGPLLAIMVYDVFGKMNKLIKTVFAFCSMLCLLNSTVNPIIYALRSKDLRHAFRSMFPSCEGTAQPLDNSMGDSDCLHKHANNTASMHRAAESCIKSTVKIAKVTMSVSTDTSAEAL
Briefly: Antagonization of CB1-mediated hypothermia. It counts as in vivo. The conditions noted are these: female NMRI mice; 1.25 mg/kg intraperitoneally; within 30 min. On the procedure: “Antagonization of CB 1-mediated Hypothermia”
The test is used to measure the potency of cannabinoid CB1 receptor (CB1) antagonists. What is measured is the extent to which the CB1 antagonists to be tested are capable of preventing or of antagonizing hypothermia induced by a CB1 agonist.
Female NMRI mice, 25-35 g in weight, are used. The mice are accustomed to the housing conditions for at least one week.
At time 0 min, the animals are treated orally, intravenously or intraperitoneally with the CB1 antagonist to be tested. 30 min later, the CB1 agonist CP55.940, 1.25 mg/kg, is administered to the mice intraperitoneally. This brings about a fall in the body temperature by 5-6° C. within 30 min. The body temperature is measured rectally for the first time 30 min before the test substance administration and then every 30 min after this administration, if appropriate immediately before a substance administration, over 4 hours.
The potency of the test substances is reported as the percentage decrease in the area under the temperature-time curve which is formed firstly by the average basal temperature, and secondly by the temperature-time curve, of the animals treated exclusively with the CB1 antagonist.

The target of assay [2] is T2, cannabinoid 2 receptor (hCB2R) (Homo sapiens, UniProt P34972).
T2 construct: expressed in transfected cells; host or cells: HEK293
T2 sequence (P34972 whole entry): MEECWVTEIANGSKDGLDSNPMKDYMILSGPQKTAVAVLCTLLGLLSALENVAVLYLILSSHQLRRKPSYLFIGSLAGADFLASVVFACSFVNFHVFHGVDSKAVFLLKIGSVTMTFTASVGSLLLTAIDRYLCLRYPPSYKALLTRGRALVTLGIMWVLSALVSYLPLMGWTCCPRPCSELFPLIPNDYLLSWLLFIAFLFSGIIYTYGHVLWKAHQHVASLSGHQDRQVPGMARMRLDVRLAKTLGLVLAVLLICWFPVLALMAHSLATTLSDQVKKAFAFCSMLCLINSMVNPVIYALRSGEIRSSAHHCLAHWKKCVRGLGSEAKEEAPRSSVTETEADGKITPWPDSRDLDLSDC
Briefly: In vitro functional assay with recombinant cells (FLIPR), CB2. It counts as cell-based. Here is the method: In vitro functional assays with recombinant cells:
Function-testing assays were performed by means of the FLIPR technique (“Fluorometric Imaging Plate Reader”, Molecular Devices Corp.).
To this end, ligand-induced changes in the intracellular concentration of Ca^2+ in recombinant HEK293 cells, which expressed both a cannabinoid receptor (CB1 or CB2) and G-protein Galphal6, were determined. For the studies, cells were sown into 96-well microtiter plates (60 000 cells/well) and left to grow overnight. The medium was removed and the cells were incubated in buffer which contained the fluorescent dye Fluo-4. After this loading with dye, the cells were washed, test substance was added dissolved in buffer, the mixture was incubated for 20 minutes, a known cannabinoid receptor agonist as a reference agonist was added in buffer and, finally, the changes in the intracellular Ca^2+ concentration were measured in the FLIPR unit.

Assay [3] has as its target T3, cannabinoid 1 receptor (hCB1R) (Homo sapiens, UniProt P21554).
T3 construct: expressed in transfected cells; host or cells: HEK293
Briefly: In vitro functional assay with recombinant cells (FLIPR), CB1. It counts as cell-based. The conditions noted are these: intracellular Ca2+ change after reference agonist, 20 min preincubation.

Assay [4] concerns the target T4, CHO-K1/cannabinoid CB1 (hCB1R) (Homo sapiens, UniProt P21554).
T4 construct: expressed in transfected cells; host or cells: CHO-K1
Briefly: Binding to the CB1 receptor ([3H]-SR141716A displacement). On the procedure: Binding to the CB 1 Receptor:
Test compounds: The compounds (3 μl, 10 mM, 100% DMSO), pipetted into 96-well PP microtiter plates, were diluted with 27 μl of 100% DMSO (dimethyl sulfoxide). Proceeding from this solution, further 3-fold dilution steps were undertaken by transferring 10 μl in each case to a new PP microtiter plate and adding a further 20 μl of 100% DMSO. In each case 6 μA of these solutions were transferred into new 96-well PP microtiter plates and made up with 144 μl of assay buffer. The end concentrations ranged from 10 μM to 0.005 μM. Negative control: AM 251, dissolved in assay buffer with 1% DMSO, was added to the dilution series in the microtiter plates as a control. The end concentration was 1 μM. Blank control: assay buffer with 1% DMSO was added to the dilution series of the microtiter plates as a blank control.
Summary of the Assay Parameters:
The values were calculated using the corrected raw data.
The values reported were obtained as average values of a double determination. The IC50 values were calculated from the measurements with the program Xlfit, formula 205. Ki values were obtained from the IC50 and Kd values utilizing the Cheng-Prusoff equation: […]
Literature: Cheng, Y.-C., and Prusoff, W. H. (1973) Biochem. Pharmacol 22, 3099-3108 Results: Ki values of example compounds; Table 2: […]

T4 sequence (P21554 whole entry): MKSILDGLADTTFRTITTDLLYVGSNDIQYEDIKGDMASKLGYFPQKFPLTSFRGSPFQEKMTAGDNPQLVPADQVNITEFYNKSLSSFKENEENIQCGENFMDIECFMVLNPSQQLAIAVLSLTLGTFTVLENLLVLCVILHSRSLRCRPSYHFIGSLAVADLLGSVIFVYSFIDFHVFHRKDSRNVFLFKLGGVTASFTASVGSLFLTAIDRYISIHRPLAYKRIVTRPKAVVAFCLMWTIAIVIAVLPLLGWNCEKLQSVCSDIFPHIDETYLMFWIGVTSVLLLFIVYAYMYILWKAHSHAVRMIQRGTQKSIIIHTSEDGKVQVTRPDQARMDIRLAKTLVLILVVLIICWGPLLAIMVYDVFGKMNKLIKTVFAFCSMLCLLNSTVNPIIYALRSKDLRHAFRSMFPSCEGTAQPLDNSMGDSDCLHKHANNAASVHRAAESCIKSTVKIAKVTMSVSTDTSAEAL
T3 sequence (P21554 whole entry): as above

In the case of `CCCCCCC(C)(C)c1ccc([C@@H]2C[C@H](O)CC[C@H]2CCCO)c(O)c1` [CP55.940], the “fall in the body temperature” value in assay [1] is 5-6 °C.
For the molecule `CC1(C)C(=O)N(c2ccc(C#N)c(C(F)(F)F)c2)C(=O)N1Cc1ccccc1NC(=O)Nc1ccc(S(N)(=O)=O)cc1` [Example 1, 4-(3-{2-[3-(4-Cyano-3-trifluoromethylphenyl)-5,5-dimethyl-2,4-dioxo-imidazolidin-1-ylmethyl]phenyl}ureido)benzenesulfonamide], the IC50 in assay [2] is > 10000 nM; in assay [3] (recombinant HEK293 cells expressing CB1 and G-protein, read-out: hCB1R: FLIPR, IC50) it was 24 nM. For the same molecule, the Ki in assay [4] ([3H]-SR141716A 0.5 nM, Ki from IC50 and Kd by Cheng-Prusoff, average of double determination, read-out: hCB1R, Bindung Ki) is 20 nM.
Take `COC(=O)c1ccc(NC(=O)Nc2ccccc2CN2C(=O)N(c3ccc(C#N)c(C(F)(F)F)c3)C(=O)C2(C)C)cc1` [Example 3, methyl 4-(3-{2-[3-(4-cyano-3-trifluoromethylphenyl)-5,5-dimethyl-2,4-dioxoimidazolidin-1-ylmethyl]phenyl}ureido)benzoate]: the IC50 in assay [2] (recombinant HEK293 cells expressing CB2 and G-protein, intracellular Ca2+ change after reference agonist, 20 min preincubation, read-out: hCB2R: FLIPR, IC50) is > 10000 nM; in assay [3] (hCB1R: FLIPR, IC50, recombinant HEK293 cells expressing CB1 and G-protein), 19 nM. In assay [4], this molecule yielded a Ki of 11 nM.
